Measurements taken from PMC8400343, “Synthesis and Evaluation of the Antidepressant-like Properties of HBK-10, a Novel 2-Methoxyphenylpiperazine Derivative Targeting the 5-HT1A and D2 Receptors” (Pharmaceuticals, 2021).

Key:
[1] = molecular target: T1, serotonin transporter (SERT) (Rattus norvegicus, UniProt P31652); experiment: Radioligand binding, [3H]-citalopram, rat cortex tissue; details: mean ± SEM, read-out: Serotonergic pKi SERT (converted)
T1 construct: from tissue; host or cells: rat cortex
Protocol: (§1) Radioligand binding was performed on membranes from CHO-K1 cells stably transfected with the human 5-HT1A, 5-HT2A, 5-HT6, or 5-HT7 receptors. […] Binding experiments were conducted in 96-well microplates, and the reaction mix included the solution of the test compound, radioligand, and diluted membranes or the tissue suspension.
(§2) The reaction was terminated by rapid filtration through GF/B or GF/C filter mate presoaked with 0.3% polyethyleneimine for 30 min. Ten rapid washes with 200 µl 50 mM Tris buffer (4 °C, pH 7.4) were performed using an automated harvester system Harvester-96 MACH III FM (Tomtec). […] Radioactivity was counted in the MicroBeta2 scintillation counter (PerkinElmer) at approximately 30% efficiency. […] A single assay was performed with each compound concentrations in duplicate, and the whole assay was repeated in a three independent experiments.

[2] = tested on: corticosterone-treated mice; experiment: Locomotor activity in corticosterone-treated mice; assay type: in vivo, mouse; details: 4 min
Protocol: The locomotor activity of mice was measured as previously described. We used photoresistor actometers (Ugo Basile, Italy) connected to a counter for the recording of light-beam interruptions. Mice were placed individually in cages for 30 min, and the number of crossings of the light beams was recorded as the locomotor activity for 4 min.
Mice were injected with corticosterone (sc, 20 mg/kg) at random times during the light phase for 21 days. The dose and route of administration of corticosterone were based on our previous study. Control mice received saline containing 0.1% dimethyl sulfoxide (DMSO) and 0.1% Tween (sc). For the next 21 days, 30 min before the corticosterone injection, mice were injected with saline, HBK-10 (0.625 or 1.25 mg/kg), or fluoxetine (15 mg/kg) (ip). Twenty-four hours after the last injection, animals were tested in the forced swim test and locomotor activity test (Figure 8).

human 5-HT1A receptor = molecular target: T2, human 5-HT1A receptor (Homo sapiens, UniProt P08908); experiment: Radioligand binding, [3H]8-OH-DPAT, CHO-K1 membranes; details: CHO-K1 cells, mean ± SEM, read-out: Serotonergic pKi 5-HT1A (converted)
T2 construct: expressed in transfected cells; host or cells: CHO-K1 (membranes)
T2 sequence (P08908 1-422): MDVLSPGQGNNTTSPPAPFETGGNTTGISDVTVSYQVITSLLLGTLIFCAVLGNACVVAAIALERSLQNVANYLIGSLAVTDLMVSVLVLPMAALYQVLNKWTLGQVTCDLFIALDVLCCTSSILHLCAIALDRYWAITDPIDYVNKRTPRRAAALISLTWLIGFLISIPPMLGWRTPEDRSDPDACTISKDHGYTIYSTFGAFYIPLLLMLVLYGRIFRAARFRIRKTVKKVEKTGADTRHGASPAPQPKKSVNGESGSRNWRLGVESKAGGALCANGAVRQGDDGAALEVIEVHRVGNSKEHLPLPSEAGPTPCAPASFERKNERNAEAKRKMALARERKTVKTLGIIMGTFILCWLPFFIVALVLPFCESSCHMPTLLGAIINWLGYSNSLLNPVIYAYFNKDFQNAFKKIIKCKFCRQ
Protocol: as §1, §2

Rotarod test in mice = assay type: in vivo, mouse; details: mouse, in vivo; ip, log-probit method
Protocol: (§3) This experimental procedure was described in detail in our earlier studies. Briefly, mice were trained on the rotarod apparatus (May Commat RR0711, Turkey; rod diameter: 2 cm) every day for 3 consecutive days. During each training session, mice were placed for 3 min on the rotating rod (24 rpm, constant speed) with an unlimited number of trials. The experiment was performed 24 h after the last training session. On the test day, mice were injected with HBK-10, and 30 min after the administration tested on the rotarod (24 rpm, constant speed). Motor impairment was regarded as the inability to remain on the rotating rod for 60 s and was expressed as the % of animals that fell off the rotating rod.

mice = experiment: Rotarod test in mice; assay type: in vivo, mouse
Protocol: as §3

human 5-HT7 receptor = molecular target: T3, human 5-HT7 receptor (Homo sapiens, UniProt P34969); experiment: Radioligand binding, [3H]-5-CT, CHO-K1 membranes; details: CHO-K1 cells, mean ± SEM, read-out: Serotonergic pKi 5-HT7 (converted)
T3 construct: expressed in transfected cells; host or cells: CHO-K1 (membranes)
Protocol: as §1, §2

human 5-HT2A receptor = molecular target: T4, human 5-HT2A receptor (Homo sapiens, UniProt P28223); experiment: Radioligand binding, [3H]-ketanserin, CHO-K1 membranes; details: CHO-K1 cells, mean ± SEM, read-out: Serotonergic pKi 5-HT2A (converted)
T4 construct: expressed in transfected cells; host or cells: CHO-K1 (membranes)
Protocol: as §1, §2

human 5-HT6 receptor = molecular target: T5, human 5-HT6 receptor (Homo sapiens, UniProt P50406); experiment: Radioligand binding, [3H]-LSD, CHO-K1 membranes; details: CHO-K1 cells, mean ± SEM, read-out: Serotonergic pKi 5-HT6 (converted)
T5 construct: expressed in transfected cells; host or cells: CHO-K1 (membranes)
Protocol: as §1, §2

dopamine D2 receptor = molecular target: T6, dopamine D2 receptor (Homo sapiens, UniProt P14416); experiment: Aequorin-based calcium mobilization functional assay, CHO-K1 cells; assay type: cell-based
T6 construct: expressed in transfected cells; host or cells: recombinant CHO-K1 co-expressing mitochondrially targeted aequorin and Gαqi/5
Protocol: Therefore, using in vitro functional assay, we next investigated the type of the interaction with this receptor.
Tested and reference compounds were dissolved in dimethyl sulfoxide (DMSO) at a concentration of 1 mM. Serial dilutions were prepared in 96-well microplate in assay buffer, and 8-to-10 concentrations were tested. A cellular aequorin-based functional assay was performed with recombinant CHO-K1 cells expressing mitochondrially targeted aequorin, human GPCR, and the promiscuous G protein Gαqi/5 for D2 receptor. After thawing, cells were transferred to assay buffer (DMEM/HAM’s F12 with 0.1% protease-free BSA) and centrifuged. The cell pellet was resuspended in assay buffer, and coelenterazine h was added at final concentrations of 5 µM. […] After 1 h of incubation, 50 µL of the cell’s suspension was dispensed using automatic injectors built into the radiometric and luminescence plate counter MicroBeta2 LumiJET (PerkinElmer, USA) into white opaque 96-well microplates preloaded with test compounds. Immediate light emission generated following calcium mobilization was recorded for 30 s. In antagonist mode, after 30 min of incubation, the reference agonist was added to the above assay mix and light emission was recorded again.

dopaminergic D2 receptor = dopaminergic D2 receptor (Homo sapiens, UniProt P14416); experiment: Radioligand binding, [3H]-methylspiperon, CHO-K1 cells; details: mean ± SEM, read-out: Dopaminergic pKi D2 (converted)
Protocol: as §2

T6 sequence (P14416 whole entry): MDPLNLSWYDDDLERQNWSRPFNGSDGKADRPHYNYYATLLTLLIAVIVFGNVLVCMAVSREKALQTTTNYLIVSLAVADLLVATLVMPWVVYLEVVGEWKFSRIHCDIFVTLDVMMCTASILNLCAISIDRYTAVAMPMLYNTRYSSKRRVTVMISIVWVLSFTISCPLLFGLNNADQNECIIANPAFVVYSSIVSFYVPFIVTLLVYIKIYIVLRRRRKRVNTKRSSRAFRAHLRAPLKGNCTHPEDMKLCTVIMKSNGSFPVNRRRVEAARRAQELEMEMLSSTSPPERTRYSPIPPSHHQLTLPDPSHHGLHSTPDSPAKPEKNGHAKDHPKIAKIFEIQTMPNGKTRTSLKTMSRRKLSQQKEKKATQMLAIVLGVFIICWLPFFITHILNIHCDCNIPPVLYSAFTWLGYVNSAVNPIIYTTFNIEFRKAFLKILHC
dopaminergic D2 receptor, sequence (P14416 whole entry): as above
T1 sequence (P31652 whole entry): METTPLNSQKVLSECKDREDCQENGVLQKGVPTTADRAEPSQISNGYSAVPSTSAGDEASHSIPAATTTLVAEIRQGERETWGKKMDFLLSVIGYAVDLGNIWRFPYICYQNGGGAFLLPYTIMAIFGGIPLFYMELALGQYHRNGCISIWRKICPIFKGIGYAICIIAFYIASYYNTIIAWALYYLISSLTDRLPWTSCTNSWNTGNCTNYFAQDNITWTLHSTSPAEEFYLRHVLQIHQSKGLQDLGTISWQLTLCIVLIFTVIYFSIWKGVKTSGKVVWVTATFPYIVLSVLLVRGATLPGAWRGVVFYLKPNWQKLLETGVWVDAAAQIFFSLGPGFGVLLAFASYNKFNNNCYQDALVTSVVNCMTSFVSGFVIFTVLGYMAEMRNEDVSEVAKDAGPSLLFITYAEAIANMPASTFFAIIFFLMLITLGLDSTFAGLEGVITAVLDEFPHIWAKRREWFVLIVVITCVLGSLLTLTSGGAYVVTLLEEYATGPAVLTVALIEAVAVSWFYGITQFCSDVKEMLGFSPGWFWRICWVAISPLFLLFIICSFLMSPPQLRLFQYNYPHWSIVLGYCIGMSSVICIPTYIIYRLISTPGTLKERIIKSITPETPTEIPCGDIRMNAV
T5 sequence (P50406 whole entry): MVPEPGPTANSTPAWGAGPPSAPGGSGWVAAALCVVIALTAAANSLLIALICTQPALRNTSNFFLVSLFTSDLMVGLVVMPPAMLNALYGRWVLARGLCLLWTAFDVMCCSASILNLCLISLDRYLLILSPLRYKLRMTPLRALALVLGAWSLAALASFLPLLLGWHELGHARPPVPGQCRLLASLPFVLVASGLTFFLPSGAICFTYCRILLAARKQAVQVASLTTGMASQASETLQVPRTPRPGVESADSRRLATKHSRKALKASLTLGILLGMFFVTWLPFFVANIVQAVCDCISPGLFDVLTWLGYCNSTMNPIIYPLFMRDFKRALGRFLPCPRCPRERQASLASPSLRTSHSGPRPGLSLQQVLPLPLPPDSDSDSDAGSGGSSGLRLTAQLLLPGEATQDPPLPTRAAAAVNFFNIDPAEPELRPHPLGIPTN
T3 sequence (P34969 whole entry): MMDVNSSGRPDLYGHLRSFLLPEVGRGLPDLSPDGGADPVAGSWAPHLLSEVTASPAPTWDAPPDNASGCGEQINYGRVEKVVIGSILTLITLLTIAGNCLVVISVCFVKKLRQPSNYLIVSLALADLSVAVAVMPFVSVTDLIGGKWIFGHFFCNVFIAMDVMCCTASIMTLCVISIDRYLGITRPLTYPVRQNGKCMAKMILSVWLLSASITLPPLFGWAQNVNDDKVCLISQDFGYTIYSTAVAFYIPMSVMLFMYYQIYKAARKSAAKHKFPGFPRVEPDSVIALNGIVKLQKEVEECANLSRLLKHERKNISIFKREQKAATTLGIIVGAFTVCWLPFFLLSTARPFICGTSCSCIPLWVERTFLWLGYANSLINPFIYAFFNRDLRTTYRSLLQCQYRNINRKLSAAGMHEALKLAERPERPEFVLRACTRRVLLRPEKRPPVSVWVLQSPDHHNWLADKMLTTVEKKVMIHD
T4 sequence (P28223 whole entry): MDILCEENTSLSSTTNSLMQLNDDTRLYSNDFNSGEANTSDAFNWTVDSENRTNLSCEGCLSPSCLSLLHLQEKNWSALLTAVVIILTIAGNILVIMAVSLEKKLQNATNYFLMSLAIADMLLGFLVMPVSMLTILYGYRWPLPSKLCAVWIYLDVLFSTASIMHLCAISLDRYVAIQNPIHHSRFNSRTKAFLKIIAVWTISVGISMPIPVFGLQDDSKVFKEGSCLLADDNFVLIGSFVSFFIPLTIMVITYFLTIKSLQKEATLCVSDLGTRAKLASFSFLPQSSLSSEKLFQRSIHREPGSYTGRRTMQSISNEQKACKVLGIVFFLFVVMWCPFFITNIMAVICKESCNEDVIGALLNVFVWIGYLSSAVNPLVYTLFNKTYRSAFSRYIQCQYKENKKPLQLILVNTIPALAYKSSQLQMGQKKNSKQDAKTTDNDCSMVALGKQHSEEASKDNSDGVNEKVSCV

SMILES: CCC(CN1CCN(c2ccccc2OC)CC1)NCCCOc1c(C)cccc1C.Cl.Cl (centres unmarked) [HBK-10, N-(3-(2,6-dimethylphenoxy)propyl)-1-(4-(2-methoxyphenyl)piperazin-1-yl)butan-2-amine dihydrochloride]
- melting point: 224 to 226 °C
- Ki [1]: 3720 nM
- Number of Crossings ± SEM ([2]; 0.625 mg/kg ip chronic): 431.1 ± 47.92
- Number of Crossings ± SEM ([2]; 1.25 mg/kg ip chronic): 453.9 ± 41.27
- Ki (human 5-HT1A receptor): 5.13 nM
- TD50 at 30 min (Rotarod test in mice): 44.3 mg/kg
- % of Animals That Fell from Rotating Rod (mice; 40 mg/kg ip): 29%
- % of Animals That Fell from Rotating Rod (mice; 45 mg/kg ip): 63%
- % of Animals That Fell from Rotating Rod (mice; 60 mg/kg ip): 86%
- Ki (human 5-HT7 receptor): 6310 nM
- Ki (human 5-HT2A receptor): 191 nM
- Ki (human 5-HT6 receptor): 3720 nM
- Emax (dopamine D2 receptor; CHO-K1, read-out: Emax %, agonist mode): 9%
- Kb, fold lower than Kb of chlorpromazine (dopamine D2 receptor; D2, antagonist mode): 3.1 fold
- Kb (dopamine D2 receptor; D2, antagonist mode, Cheng–Prusoff equation): 2.76 nM
- IC50 (dopamine D2 receptor; read-out: pIC50 ± SEM, antagonist mode (converted)): 9.33 nM
- Ki (dopaminergic D2 receptor): 50.1 nM
